Each structure is given as a SMILES string.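 Growth conditions: 96-well plates. Treatment: test compound, 48 hours, 5 concentrations. Analysis: linear interpolation between bracketing concentrations; unreached endpoints set to highest concentration. Abbreviation: GI50, concentration required for 50% inhibition of growth. Definition used: TGI = concentration required for complete inhibition of growth.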

Some test systems named below: OVCAR-5 ovarian; M14 melanoma; DMS 273 small cell lung; HL-60(TB) leukemia; NCI-H226 lung; SK-MEL-28 melanoma; MOLT-4 leukemia; COLO 205 colon; DLD-1 colon; DU-145 prostate.
Common to all, as to assay: NCI anticancer screen, dose series, 48 h

On to `O=C(OC1CCC2OOC1O2)c1ccc([N+](=O)[O-])cc1` (stereo not given), for which the TGI with OVCAR-5 ovarian, with M14 melanoma, in the test on DMS 273 small cell lung, with HL-60(TB) leukemia, with NCI-H226 lung and with SK-MEL-28 melanoma was > 100 µM throughout. In addition, the TGI in the test on MOLT-4 leukemia and in the test on COLO 205 colon was > 100 µM throughout.

Take `N#CCCCCCOCCOCCOCCOCCOCCCCCC#N`: the TGI in the test on OVCAR-5 ovarian, with M14 melanoma, with DMS 273 small cell lung, in the test with HL-60(TB) leukemia, with NCI-H226 lung and in the test on DLD-1 colon was > 100 µM in each case. Further, the TGI in the test with SK-MEL-28 melanoma, with MOLT-4 leukemia and in the test on COLO 205 colon was > 100 µM each time.

Regarding `O=C(NCc1cccnc1)C1COc2cc(-c3cc(=O)c4ccccc4o3)ccc2O1` (stereo not given), the TGI was > 100 µM with OVCAR-5 ovarian; > 100 µM in the test with M14 melanoma; > 46.4 µM with HL-60(TB) leukemia; > 57.1 µM with NCI-H226 lung; > 100 µM in the test on DLD-1 colon; > 28.7 µM in the test on SK-MEL-28 melanoma. Also, the TGI in the test with MOLT-4 leukemia and in the test with COLO 205 colon was > 100 µM in each case.

As for `CC1(Br)CC2OC3(Br)C=CC(C)(O)C2(CC1=O)C3(C)C` (stereo not given), the TGI with OVCAR-5 ovarian, in the test on M14 melanoma, in the test with DMS 273 small cell lung, in the test on NCI-H226 lung, in the test on DLD-1 colon and in the test with SK-MEL-28 melanoma was > 100 µM in each case. The TGI in the test with MOLT-4 leukemia and in the test with COLO 205 colon was > 100 µM in each case.

In the case of `CC[C@@]1(O)C(=O)OCc2c1cc1n(c2=O)Cc2cc3cccc([N+](=O)[O-])c3nc2-1`, the GI50 is 1.55 µM in the test with OVCAR-5 ovarian; 1.05 µM in the test with M14 melanoma; 0.175 µM with DMS 273 small cell lung; 0.365 µM with HL-60(TB) leukemia; 0.552 µM with NCI-H226 lung; 24.6 µM with DLD-1 colon. Moreover, the GI50 with SK-MEL-28 melanoma is 43.9 µM; in the test with COLO 205 colon it was 4.63 µM. For the same compound, the TGI in the test with OVCAR-5 ovarian is 28.4 µM; with M14 melanoma it was 12.5 µM; with DMS 273 small cell lung, 1.67 µM; with HL-60(TB) leukemia it was > 100 µM; in the test on NCI-H226 lung, 6.49 µM; with DLD-1 colon, > 100 µM. The TGI was > 100 µM in the test on SK-MEL-28 melanoma and 25.9 µM in the test on COLO 205 colon.

As for `NC1CCCCC1N.O=[Se]([O-])[O-].[Pt+4]` (stereo not given), the GI50 with OVCAR-5 ovarian was 1.83 µM; with M14 melanoma, 2.51 µM; in the test with HL-60(TB) leukemia, 0.315 µM; in the test with NCI-H226 lung it was 6.42 µM; in the test with DLD-1 colon, 1.81 µM; with SK-MEL-28 melanoma, 2.01 µM. In addition, the GI50 in the test on MOLT-4 leukemia was 0.0775 µM; with COLO 205 colon, 1.19 µM. For the same compound, the TGI in the test on OVCAR-5 ovarian was 27.9 µM; with M14 melanoma it was > 52.2 µM; in the test with HL-60(TB) leukemia, > 28.9 µM; in the test with NCI-H226 lung, 29.3 µM; in the test with DLD-1 colon it was > 83.8 µM; in the test on SK-MEL-28 melanoma it was 32.9 µM. Moreover, the results for the TGI in the test on MOLT-4 leukemia and in the test on COLO 205 colon were > 100 µM and 17.5 µM, respectively.

Consider `COC(=O)c1ccccc1N1C(=O)Cc2ccccc2C1=O`, for which the TGI with OVCAR-5 ovarian, with DMS 273 small cell lung, in the test with NCI-H226 lung, in the test with SK-MEL-28 melanoma, in the test on MOLT-4 leukemia and in the test with COLO 205 colon was > 100 µM throughout.

As to `Nc1nc(N)c(-c2ccccc2)c(C(=O)Nc2ccccc2)n1`, the TGI with OVCAR-5 ovarian, in the test with M14 melanoma, in the test with NCI-H226 lung, in the test with DLD-1 colon, in the test on SK-MEL-28 melanoma and in the test on MOLT-4 leukemia was > 100 µM in each case. Further, the TGI with COLO 205 colon was > 100 µM.

In the case of `O=[N+]([O-])c1ccc(C2=Nn3c(nnc3-c3ccc(Cl)cc3)SC2)o1`, the TGI in the test with OVCAR-5 ovarian was found to be 33.8 µM; in the test on DU-145 prostate it was 39.6 µM; in the test with M14 melanoma it was 14.3 µM; with DMS 273 small cell lung it was 31.1 µM; in the test on HL-60(TB) leukemia, 6.28 µM; in the test on NCI-H226 lung, 37.8 µM. Also, the TGI in the test with DLD-1 colon was 4.32 µM; with SK-MEL-28 melanoma it was 28 µM; with MOLT-4 leukemia it was 8.59 µM; in the test with COLO 205 colon, 4.31 µM.

`COc1ccc(NC(=O)CC/C(CC(=O)c2ccco2)=N/NC(N)=S)cc1`: the TGI in the test with OVCAR-5 ovarian, in the test on M14 melanoma, with DMS 273 small cell lung, with HL-60(TB) leukemia, with NCI-H226 lung and in the test with DLD-1 colon was > 100 µM each time. Besides, the TGI with MOLT-4 leukemia and in the test on COLO 205 colon was > 100 µM throughout.

In the case of `CCCCNC(=O)C1C(=O)N(CCCC)C(=O)/C1=N\N` (stereo not given), the TGI with OVCAR-5 ovarian, with M14 melanoma, in the test with DMS 273 small cell lung, in the test with NCI-H226 lung, with SK-MEL-28 melanoma and with MOLT-4 leukemia was > 100 µM throughout. For the same compound, the TGI in the test with COLO 205 colon was > 100 µM.

As for `C=C1C(=O)O[C@H]2[C@H]1CC/C(C=Nc1c(N)cc(C(F)(F)F)cc1C(F)(F)F)=C\CC[C@@]1(C)O[C@@H]21`, the GI50 is 1.87 µM with OVCAR-5 ovarian; 1.63 µM in the test on DU-145 prostate; 1.73 µM in the test on M14 melanoma; 0.801 µM in the test on HL-60(TB) leukemia; 1.43 µM with NCI-H226 lung; 1.87 µM in the test on SK-MEL-28 melanoma. Besides, the GI50 in the test with MOLT-4 leukemia was 0.517 µM; in the test with COLO 205 colon it was 1.35 µM. For the same compound, the TGI in the test with OVCAR-5 ovarian was determined as 4.59 µM; in the test on DU-145 prostate, 3.09 µM; with M14 melanoma it was 3.67 µM; with HL-60(TB) leukemia, 27.2 µM; in the test with NCI-H226 lung it was 4.11 µM; in the test with SK-MEL-28 melanoma it was 3.83 µM. The TGI in the test on MOLT-4 leukemia is > 100 µM; in the test on COLO 205 colon, 3.04 µM.

On to `O=[N+]([O-])c1ccc(C2CC(c3ccccc3)=Nc3ccccc3S2)cc1` (stereo not given), for which the GI50 in the test with OVCAR-5 ovarian is > 100 µM; with DU-145 prostate it was 5.15 µM; in the test with M14 melanoma, 51 µM; with HL-60(TB) leukemia, > 100 µM; with NCI-H226 lung, > 100 µM; with SK-MEL-28 melanoma, > 100 µM. For the same compound, the GI50 in the test on MOLT-4 leukemia is 6.04 µM; in the test on COLO 205 colon it was > 100 µM. The TGI in the test on OVCAR-5 ovarian, with DU-145 prostate, with M14 melanoma, in the test on HL-60(TB) leukemia, in the test on NCI-H226 lung and in the test on SK-MEL-28 melanoma was > 100 µM in each case. Also, the TGI in the test on MOLT-4 leukemia and in the test on COLO 205 colon was > 100 µM each time.

The values are drawn from PubChem BioAssay (NCI).
